Source: article PMC7663272, “Discovery of Tricyclic Pyranochromenone as Novel Bruton’s Tyrosine Kinase Inhibitors with In Vivo Antirheumatic Activity” (International Journal of Molecular Sciences, 2020)

Assays:
[1] = system: IL-6 production in LPS-stimulated THP-1 cells; experiment: LPS-induced IL-6 release in THP-1 cells (ELISA); format: cell-based, human
From the text: BTK plays a critical role in high-affinity IgE receptor (FcεRI) and B cell receptor (BCR) signaling, resulting in the release of proinflammatory cytokines. Therefore, BTK inhibitor treatment can reduce the production of both lymphoid and myeloid cytokines. […] We examined the cellular effects of compound 8 on the production of cytokines IL-6 and TNF-α in LPS-stimulated THP-1 cells. Following treatment with LPS alone or LPS and compound 8, the levels of cytokines secreted by THP-1 cells were assessed (Figure 5). LPS increased the output of proinflammatory cytokines.
THP-1 cells were obtained from the American Type Culture Collection (ATCC, Manassas, VA, USA). The cells were cultured in RPMI-1640 supplemented with 10% FBS, 1% P/S, and 0.05 mM 2-mercaptoethanol and maintained at 37 °C and 5% CO2 in a humidified incubator. Cytokine secretion (hIL-6 and TNF-α) in the culture supernatants of the THP-1 cells was measured using a human cytokine ELISA kit (Abcam). Differentiated THP-1 cells were treated with agents and LPS for 24 h, after which the cell culture media was centrifuged at 2000× g for 10 min to remove debris. Briefly, each sample (50 μL) or standard was mixed with the appropriate detection antibody and incubated for 1 h at room temperature on a plate shaker. […] Subsequently, 100 μL of stop solution was added to each well, and the optical density (OD) was measured at 450 nm. […]

[2] = target: T1, CYP3A4 (Homo sapiens, UniProt P08684); experiment: P450-Glo CYP inhibition assay, CYP3A4; format: in vitro ADME
T1 construct: purchased Promega V9920
T1 sequence (P08684 whole entry): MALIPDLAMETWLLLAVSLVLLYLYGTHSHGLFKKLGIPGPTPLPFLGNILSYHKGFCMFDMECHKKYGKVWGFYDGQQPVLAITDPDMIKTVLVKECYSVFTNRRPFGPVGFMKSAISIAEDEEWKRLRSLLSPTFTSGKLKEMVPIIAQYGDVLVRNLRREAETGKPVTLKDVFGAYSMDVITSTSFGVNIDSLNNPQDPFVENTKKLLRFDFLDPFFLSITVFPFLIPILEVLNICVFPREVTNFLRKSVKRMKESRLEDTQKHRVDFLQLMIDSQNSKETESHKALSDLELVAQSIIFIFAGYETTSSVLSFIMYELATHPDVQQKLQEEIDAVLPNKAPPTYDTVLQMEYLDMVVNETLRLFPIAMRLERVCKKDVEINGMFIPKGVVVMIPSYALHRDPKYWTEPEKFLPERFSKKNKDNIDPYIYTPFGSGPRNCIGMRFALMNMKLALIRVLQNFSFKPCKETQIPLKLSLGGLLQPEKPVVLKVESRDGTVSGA
Experimental: The potential for CYP450 inhibition (CYP1A2, 2C9, 2C19, 2D6, and […]) was assessed using Promega P450-Glo^TM CYP450 assay systems. Luciferin-ME served as the substrate for CYP1A2, and the inhibitor α-naphthoflavone was used as a positive control. Luciferin-H was used as the substrate for CYP2C9, and the inhibitor sulfaphenazole was used as a positive control. Luciferin-H EGE was selected as the substrate for CYP2C19, whereas the inhibitor amitriptyline served as a positive control. Luciferin-ME EGE was used as the substrate for CYP2D6, whereas the inhibitor quinidine served as a positive control. Luciferin-BE was used as the substrate for CYP3A4, whereas the inhibitor ketoconazole was used as a positive control. The assays were performed using the excitation and emission wavelengths recommended by the manufacturer. Briefly, a CYP enzyme and a P450-Glo™ substrate were combined in potassium phosphate (0.1 M KPO4) buffer, with or without a test compound of interest, and […]. The reaction was initiated by adding two volumes of 2 times concentrated NADPH regeneration system. […] Luminescence was subsequently measured using a Tecan Infinite M1000 PRO microplate reader (Tecan Group Ltd., Switzerland). The percent inhibition was calculated relative to that of the positive control at a fixed concentration. […]

[3] = system: collagen-induced arthritis (CIA); experiment: Murine model of collagen-induced arthritis (CIA); format: in vivo
Experimental: The in vivo efficacy of compound 8 was evaluated in a murine inflammatory model of collagen-induced arthritis (CIA). The study included four groups: a vehicle-treated control group and three treatment groups. The treatment groups comprised a dexamethasone-treated group, in which dexamethasone served as the positive control, and two treatment groups, in which animals were treated with compound 8 at doses of 10 and 50 mg/kg. Compound 8 was administered once daily for 15 days by oral gavage, and the in vivo efficacy was evaluated by measuring the clinical score and foot volume. […] There were no significant changes in the body weights of animals in all the treatment groups (data not shown) during treatment.
The animal study was approved by the Institutional Animal Care and Use Committee (IACUC) of the Korea Research Institute of Bioscience and Biotechnology on March 15, 2017, under approval number KRIBB-AEC-17090. Male DBA1/JNCrli mice (7 weeks old) were purchased from Japan CRL, Inc. The mice were housed in specific pathogen-free (SPF) conditions and were allowed ad libitum access to food and water. After 7 days of acclimatization, the mice were immunized with 0.05 mL of a type II collagen emulsion (Hooke Kit^TM Chicken Collagen, Cat. No. EK-0210 from Hooke) and Freund’s complete adjuvant by subcutaneous injection at 1.5 cm distal from the base of the tail. After 21 days, the immunized mice were administered a booster injection with 0.05 mL of a type II collagen emulsion (Hooke Kit^TM Chicken Collagen, Cat. No. EK-0211 from Hooke) and Freund’s incomplete adjuvant. The emulsions were prepared according to the manufacturer’s instructions. On day 21, the mice with CIA were randomized into four groups. The animals in the four groups were administered either 0.3 mg/kg dexamethasone (n = 5), 10 mg/kg compound 8 (n = 5), 50 mg/kg compound 8 (n = 5), or vehicle (n = 5), once a day, for […], orally. The vehicle, in which all test compounds were suspended, comprised DMAC (10%), Tween 80 (10%), and DW (80%). Clinical arthritis scores and body weights were assessed three times per week for 15 days. The paw volumes were measured using a LE7500 plethysmometer (Panlab, Barcelona, Spain) on days 0 and 42.

## C=CC(=O)O[C@H]1Cc2cc3ccc(=O)oc3cc2OC1(C)C [Compound 8, (7S)-(+)-Acrylic acid, 8,8-dimethyl-2-oxo-6,7-dihydro-2H,8H-pyrano [3,2-g]chromen-7-yl ester]
[1]; LPS-stimulated differentiated THP-1 cells, 24 h, ELISA
  production of IL-6: significantly and dose-dependently reduced
[1]; compound at 10 μM, ibrutinib at 2 μM
  inhibitory activity on IL-6 production at 10 μM, compared with ibrutinib: comparable with that of ibrutinib at 2 μM
[2]
  CYP3A4 inhibition (in words): rarely inhibited
[2]; % inhibition of human CYP isozymes at 10 μM
  CYP inhibition 3A4: <1%
[3]; mice with CIA, 10 and 50 mg/kg oral
  toxicity: no obvious toxicity
[3]; mice, 50 mg/kg oral, dexamethasone 0.3 mg/kg
  efficacy compared with dexamethasone: comparable to that of dexamethasone at 0.3 mg/kg
[3]; mice, 10 and 50 mg/kg, daily oral, t-test
  clinical scores vs control: differed significantly from those with the control
[3]; mice, 10 and 50 mg/kg, once daily, oral gavage, 15 days
  severity of CIA (clinical score and foot volume): significantly reduced the severity of CIA in a dose-dependent manner
